Reference: the supplement of paper PMC10307832

How the values were obtained:
Experiment in all cases: relative viability (nuclei count vs DMSO), 5 days (fraction); higher = more cells survive
[1] = tested on: BEN
Summary of the method: (§1)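 Relative viability divides the nuclei count in treated wells by that in vehicle wells. Lung cancer cell lines were seeded in 1536-well plates, dosed by pin tool the next day, and fixed and stained after 5 days in one step with final 0.05% Triton X-100, 1% formaldehyde and 1 ug/ml Hoechst. Dosing was a single drug or a fixed anchor-drug dose plus five library-drug doses (not always all listed) in √10 steps, and values are medians of duplicate plates imaged at 4×.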

[2] = tested on: CAL-12T
Summary of the method: as §1

[3] = tested on: EKVX
Summary of the method: as §1

[4] = tested on: HCC-366
Summary of the method: as §1

[5] = tested on: HCC-44
Summary of the method: as §1

[6] = tested on: LOU-NH91
Summary of the method: as §1

[7] = tested on: LU99A
Summary of the method: as §1

[8] = tested on: NCI-H1355
Summary of the method: as §1

[9] = tested on: NCI-H1395
Summary of the method: as §1

[10] = tested on: NCI-H1437
Summary of the method: as §1

[11] = tested on: NCI-H1650
Summary of the method: as §1

[12] = tested on: NCI-H1651
Summary of the method: as §1

[13] = tested on: NCI-H1734
Summary of the method: as §1

[14] = tested on: NCI-H1755
Summary of the method: as §1

[15] = tested on: NCI-H1975
Summary of the method: as §1

[16] = tested on: NCI-H2023
Summary of the method: as §1

[17] = tested on: NCI-H2085
Summary of the method: as §1

[18] = tested on: NCI-H2342
Summary of the method: as §1

[19] = tested on: NCI-H358
Summary of the method: as §1

[20] = tested on: NCI-H441
Summary of the method: as §1

[21] = tested on: NCI-H460
Summary of the method: as §1

[22] = tested on: NCI-H838
Summary of the method: as §1

CC1(C)CCC(c2ccc(Cl)cc2)=C(CN2CCN(c3ccc(C(=O)NS(=O)(=O)c4ccc(N[C@H](CCN5CCOCC5)CSc5ccccc5)c(S(=O)(=O)C(F)(F)F)c4)cc3)CC2)C1 [Navitoclax] + O=C(c1cc(Cc2n[nH]c(=O)c3ccccc23)ccc1F)N1CCN(C(=O)C2CC2)CC1 [Olaparib] (partner 8 µM)
relative viability ([1]; first compound 0.005 µM): 1.07 | relative viability ([1]; first compound 0.01581 µM): 1.06 | relative viability ([1]; first compound 0.05 µM): 0.862 | relative viability ([1]; first compound 0.1581 µM): 1.05 | relative viability ([1]; first compound 0.5 µM): 0.595 | relative viability ([2]; first compound 0.005 µM): 0.715 | relative viability ([2]; first compound 0.01581 µM): 0.651 | relative viability ([2]; first compound 0.05 µM): 0.674 | relative viability ([2]; first compound 0.1581 µM): 0.75 | relative viability ([2]; first compound 0.5 µM): 0.791 | relative viability ([3]; first compound 0.005 µM): 0.887 | relative viability ([3]; first compound 0.01581 µM): 0.994 | relative viability ([3]; first compound 0.05 µM): 0.784 | relative viability ([3]; first compound 0.1581 µM): 0.891 | relative viability ([3]; first compound 0.5 µM): 0.885 | relative viability ([4]; first compound 0.005 µM): 0.362 | relative viability ([4]; first compound 0.01581 µM): 0.43 | relative viability ([4]; first compound 0.1581 µM): 0.404 | relative viability ([4]; first compound 0.5 µM): 0.399 | relative viability ([5]; first compound 0.005 µM): 0.971 | relative viability ([5]; first compound 0.01581 µM): 0.98 | relative viability ([5]; first compound 0.05 µM): 0.887 | relative viability ([5]; first compound 0.1581 µM): 0.943 | relative viability ([5]; first compound 0.5 µM): 0.932 | relative viability ([6]; first compound 0.005 µM): 0.909 | relative viability ([6]; first compound 0.01581 µM): 0.928 | relative viability ([6]; first compound 0.05 µM): 0.697 | relative viability ([6]; first compound 0.1581 µM): 0.658 | relative viability ([6]; first compound 0.5 µM): 0.37 | relative viability ([7]; first compound 0.005 µM): 0.257 | relative viability ([7]; first compound 0.01581 µM): 0.275 | relative viability ([7]; first compound 0.1581 µM): 0.269 | relative viability ([7]; first compound 0.5 µM): 0.276 | relative viability ([8]; first compound 0.005 µM): 0.74 | relative viability ([8]; first compound 0.01581 µM): 0.731 | relative viability ([8]; first compound 0.05 µM): 0.734 | relative viability ([8]; first compound 0.1581 µM): 0.694 | relative viability ([8]; first compound 0.5 µM): 0.806 | relative viability ([9]; first compound 0.005 µM): 0.456 | relative viability ([9]; first compound 0.01581 µM): 0.495 | relative viability ([9]; first compound 0.05 µM): 0.441 | relative viability ([9]; first compound 0.1581 µM): 0.428 | relative viability ([9]; first compound 0.5 µM): 0.473 | relative viability ([10]; first compound 0.005 µM): 0.619 | relative viability ([10]; first compound 0.01581 µM): 0.659 | relative viability ([10]; first compound 0.05 µM): 0.655 | relative viability ([10]; first compound 0.1581 µM): 0.629 | relative viability ([10]; first compound 0.5 µM): 0.656 | relative viability ([11]; first compound 0.005 µM): 0.67 | relative viability ([11]; first compound 0.01581 µM): 0.829 | relative viability ([11]; first compound 0.05 µM): 0.803 | relative viability ([11]; first compound 0.1581 µM): 0.784 | relative viability ([11]; first compound 0.5 µM): 0.649 | relative viability ([12]; first compound 0.005 µM): 0.167 | relative viability ([12]; first compound 0.01581 µM): 0.181 | relative viability ([12]; first compound 0.05 µM): 0.152 | relative viability ([12]; first compound 0.1581 µM): 0.189 | relative viability ([12]; first compound 0.5 µM): 0.197 | relative viability ([13]; first compound 0.005 µM): 0.626 | relative viability ([13]; first compound 0.01581 µM): 0.67 | relative viability ([13]; first compound 0.1581 µM): 0.534 | relative viability ([13]; first compound 0.5 µM): 0.535 | relative viability ([14]; first compound 0.005 µM): 0.831 | relative viability ([14]; first compound 0.01581 µM): 0.929 | relative viability ([14]; first compound 0.05 µM): 0.686 | relative viability ([14]; first compound 0.1581 µM): 0.818 | relative viability ([14]; first compound 0.5 µM): 0.897 | relative viability ([15]; first compound 0.005 µM): 0.77 | relative viability ([15]; first compound 0.01581 µM): 0.854 | relative viability ([15]; first compound 0.05 µM): 0.773 | relative viability ([15]; first compound 0.1581 µM): 0.813 | relative viability ([15]; first compound 0.5 µM): 0.755 | relative viability ([16]; first compound 0.005 µM): 0.445 | relative viability ([16]; first compound 0.01581 µM): 0.47 | relative viability ([16]; first compound 0.05 µM): 0.534 | relative viability ([16]; first compound 0.1581 µM): 0.442 | relative viability ([16]; first compound 0.5 µM): 0.496 | relative viability ([17]; first compound 0.005 µM): 0.74 | relative viability ([17]; first compound 0.01581 µM): 0.864 | relative viability ([17]; first compound 0.05 µM): 0.596 | relative viability ([17]; first compound 0.1581 µM): 0.746 | relative viability ([17]; first compound 0.5 µM): 0.815 | relative viability ([18]; first compound 0.005 µM): 0.421 | relative viability ([18]; first compound 0.01581 µM): 0.44 | relative viability ([18]; first compound 0.05 µM): 0.322 | relative viability ([18]; first compound 0.1581 µM): 0.476 | relative viability ([18]; first compound 0.5 µM): 0.456 | relative viability ([19]; first compound 0.005 µM): 0.566 | relative viability ([19]; first compound 0.01581 µM): 0.751 | relative viability ([19]; first compound 0.05 µM): 0.663 | relative viability ([19]; first compound 0.1581 µM): 0.536 | relative viability ([19]; first compound 0.5 µM): 0.585 | relative viability ([20]; first compound 0.005 µM): 0.529 | relative viability ([20]; first compound 0.01581 µM): 0.528 | relative viability ([20]; first compound 0.05 µM): 0.627 | relative viability ([20]; first compound 0.1581 µM): 0.429 | relative viability ([20]; first compound 0.5 µM): 0.5 | relative viability ([21]; first compound 0.005 µM): 0.424 | relative viability ([21]; first compound 0.01581 µM): 0.499 | relative viability ([21]; first compound 0.05 µM): 0.359 | relative viability ([21]; first compound 0.1581 µM): 0.388 | relative viability ([21]; first compound 0.5 µM): 0.402 | relative viability ([22]; first compound 0.005 µM): 0.775 | relative viability ([22]; first compound 0.01581 µM): 0.818 | relative viability ([22]; first compound 0.05 µM): 0.834 | relative viability ([22]; first compound 0.1581 µM): 0.775 | relative viability ([22]; first compound 0.5 µM): 0.768
